The results in this text go back to patent publication US9714247B2, “Multiple kinase pathway inhibitors” (Mannkind Corporation, priority 2012, dated 2017).

The test system of one assay is Ramos. Briefly: CellTiter-Glo proliferation/viability assay. Format: cell-based, human. In general terms: In ATP-based viability assays light output follows the ATP content of the culture.
Assay [1] concerns the target T1, Lyn (Homo sapiens (Human), UniProt P07948). Briefly: biochemical.
Another assay addresses Src (Homo sapiens (Human), UniProt P12931). As to conditions: read-out: Src IC50.
Another assay addresses BTK (Homo sapiens (Human), UniProt Q06187).
For another assay, the system named is DoHH2. The experiment in a line: CellTiter-Glo proliferation/viability assay. The class given is cell-based, human. As to conditions: Homo sapiens, read-out: DoHH2 EC50.
In assay [2] the target is T1, Lyn. The conditions noted are these: read-out: Lyn IC50.
Where [3] appears, read: Homo sapiens, Ramos; 48 hrs; read-out: Ramos EC50.
[4] abbreviates: Homo sapiens, Ramos, 48 h; read-out: Ramos EC50.

Read-outs that look alike come from different tables or passages of the source.

Chain of BTK (Q06187 whole entry): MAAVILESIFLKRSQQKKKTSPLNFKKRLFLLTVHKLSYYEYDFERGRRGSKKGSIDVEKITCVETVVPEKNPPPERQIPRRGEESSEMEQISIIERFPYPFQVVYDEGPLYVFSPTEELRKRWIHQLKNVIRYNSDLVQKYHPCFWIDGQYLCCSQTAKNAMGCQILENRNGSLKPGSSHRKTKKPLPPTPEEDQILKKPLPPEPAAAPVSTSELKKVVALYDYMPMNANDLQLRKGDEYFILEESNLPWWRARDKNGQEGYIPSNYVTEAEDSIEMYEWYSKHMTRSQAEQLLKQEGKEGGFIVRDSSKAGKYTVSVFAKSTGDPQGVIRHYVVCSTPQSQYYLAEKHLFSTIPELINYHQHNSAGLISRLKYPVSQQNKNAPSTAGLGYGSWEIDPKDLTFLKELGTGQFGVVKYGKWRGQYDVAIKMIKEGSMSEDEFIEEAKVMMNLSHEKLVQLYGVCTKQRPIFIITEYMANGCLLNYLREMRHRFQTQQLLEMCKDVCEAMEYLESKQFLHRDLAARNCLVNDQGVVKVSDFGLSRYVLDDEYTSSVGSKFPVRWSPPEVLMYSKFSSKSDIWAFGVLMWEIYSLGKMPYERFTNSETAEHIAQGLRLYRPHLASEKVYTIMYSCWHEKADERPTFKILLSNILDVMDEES
Chain of Src (P12931 whole entry, looked up): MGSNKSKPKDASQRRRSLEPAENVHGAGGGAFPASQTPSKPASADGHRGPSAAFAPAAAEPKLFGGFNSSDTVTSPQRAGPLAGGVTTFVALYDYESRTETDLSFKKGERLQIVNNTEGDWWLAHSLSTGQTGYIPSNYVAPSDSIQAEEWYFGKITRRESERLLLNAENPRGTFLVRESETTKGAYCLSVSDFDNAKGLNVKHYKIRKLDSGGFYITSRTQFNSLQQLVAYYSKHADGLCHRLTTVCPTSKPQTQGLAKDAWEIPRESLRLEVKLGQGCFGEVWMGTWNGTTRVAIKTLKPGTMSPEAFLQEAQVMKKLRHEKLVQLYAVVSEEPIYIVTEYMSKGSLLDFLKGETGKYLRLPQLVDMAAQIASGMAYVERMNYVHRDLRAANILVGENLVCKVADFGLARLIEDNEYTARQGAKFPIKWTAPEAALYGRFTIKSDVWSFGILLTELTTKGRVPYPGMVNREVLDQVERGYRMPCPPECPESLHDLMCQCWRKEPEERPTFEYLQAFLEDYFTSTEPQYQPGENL
T1 sequence (P07948 whole entry): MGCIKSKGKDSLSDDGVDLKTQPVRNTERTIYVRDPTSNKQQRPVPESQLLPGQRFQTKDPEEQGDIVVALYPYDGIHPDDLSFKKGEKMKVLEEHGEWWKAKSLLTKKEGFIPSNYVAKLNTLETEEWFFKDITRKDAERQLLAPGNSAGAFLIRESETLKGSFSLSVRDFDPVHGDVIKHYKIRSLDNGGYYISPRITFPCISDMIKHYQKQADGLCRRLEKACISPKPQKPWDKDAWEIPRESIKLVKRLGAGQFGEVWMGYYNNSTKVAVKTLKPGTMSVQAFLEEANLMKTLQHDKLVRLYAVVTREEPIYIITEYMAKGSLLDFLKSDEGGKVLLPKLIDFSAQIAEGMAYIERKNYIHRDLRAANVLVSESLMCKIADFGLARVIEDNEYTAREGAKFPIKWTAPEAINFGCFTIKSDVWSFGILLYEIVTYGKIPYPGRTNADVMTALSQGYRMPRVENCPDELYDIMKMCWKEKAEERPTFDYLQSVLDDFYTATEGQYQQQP

On to `CCN(CC)CCOc1ccc(Nc2cc3c(cn2)cc(-c2ccccc2)c(=O)n3C)nc1` [Compound 15, 7-[5-(2-Diethylamino-ethoxy)-pyridin-2-ylamino]-1-methyl-3-phenyl-1H-[1,6]naphthyridin-2-one], for which the EC50 is 1000 to 10000 nM in the assay on Ramos (setting [3]) and less than 1000 nM in the assay on DoHH2 (DOHH-2, 48 hrs). Moreover, the IC50 on Lyn [1] was 100 to 1000 nM; at Src, less than 100 nM; at BTK (read-out: BTK IC50) it was less than 100 nM.

As for `CCn1c(=O)c(C2CCC2)cc2cnc(Nc3ccc(C)cn3)cc21` [Compound 37, 3-Cyclobutyl-1-ethyl-7-(5-methyl-pyridin-2-ylamino)-1H-[1,6]naphthyridin-2-one], the EC50 was more than 10000 nM with Ramos (setting [3]) and more than 10000 nM in the assay on DoHH2 (DOHH-2, 48 hrs). Besides, the IC50 at Lyn [1] was 1000 to 5000 nM; at Src, more than 5000 nM; at BTK, 100 to 1000 nM.

In the case of `CCn1c(=O)c(-c2cccc(C)c2)cc2cnc(Nc3ccc(C)cn3)cc21` [Compound 41, 1-ethyl-7-(5-methylpyridin-2-ylamino)-3-m-tolyl-1,6-naphthyridin-2(1H)-one], the EC50 with Ramos (setting [4]) is more than 10000 nM; in the assay on DoHH2 (DOHH-2, 48 hrs) it was more than 10000 nM. The IC50 at Lyn [1] is 1000 to 5000 nM; at Src, more than 5000 nM; on BTK (read-out: BTK IC50), more than 5000 nM.

For `CCn1c(=O)c(-c2ccccc2)cc2cnc(Nc3ccnc(O)n3)cc21` [Compound 63, 1-Ethyl-7-(2-hydroxy-pyrimidin-4-ylamino)-3-phenyl-1H-[1,6]naphthyridin-2-one], the EC50 in the assay with Ramos (setting [3]) is 1000 to 10000 nM; in the assay on DoHH2 (DOHH-2, 48 hrs), 1000 to 10000 nM. The IC50 against Lyn [1] is 100 to 1000 nM; on Src, less than 100 nM; against BTK, 1000 to 5000 nM.

For `CCn1c(=O)c(-c2nccs2)cc2cnc(Nc3ccc(C)cn3)cc21` [Compound 68], the EC50 is more than 10000 nM in the assay on Ramos (setting [3]) and 1000 to 10000 nM in the assay on DoHH2 (DOHH-2, 48 hrs). Further, the IC50 was 1000 to 5000 nM against Lyn [1], more than 5000 nM on Src and more than 5000 nM at BTK (read-out: BTK IC50).

As for `CCn1c(=O)c(-c2ccccc2Cl)cc2cnc(Nc3ccc(F)cn3)cc21` [Compound 71, 3-(2-chlorophenyl)-1-ethyl-7-(5-fluoropyridin-2-ylamino)-1,6-naphthyridin-2(1H)-one], the EC50 with Ramos (setting [3]) is more than 10000 nM; with DoHH2 (DOHH-2, 48 hrs) it was 1000 to 10000 nM. Also, the IC50 was 100 to 1000 nM against Lyn [1], less than 100 nM on Src and 1000 to 5000 nM on BTK.

Regarding `CCN(CC)CCOc1ccc(Nc2cc3c(cn2)cc(-c2ccccc2)c(=O)n3C2CCCCC2)nc1` [Compound 74, 1-cyclohexyl-7-(5-(2-(diethylamino)ethoxy)pyridin-2-ylamino)-3-phenyl-1,6-naphthyridin-2(1H)-one], the concentration for a half-maximal effect (EC50) is 1000 to 10000 nM in the assay on Ramos (setting [3]) and 1000 to 10000 nM in the assay on DoHH2 (DOHH-2, 48 hrs). Moreover, the IC50 was 1000 to 5000 nM on Lyn [1] and less than 100 nM on Src.

Turning to `CCN(CC)CCOc1ccc(Nc2cc3c(cn2)cc(-c2c(F)cc(Cl)cc2F)c(=O)n3CC)nc1` [Compound 98, 3-(4-chloro-2,6-difluorophenyl)-7-((5-(2-(diethylamino)ethoxy)pyridin-2-yl)amino)-1-ethyl-1,6-naphthyridin-2(1H)-one], the EC50 in the assay with Ramos (setting [3]) fell in the range of 1000 to 10000 nM; in the assay on DoHH2 (DOHH-2, 48 hrs) it was 1000 to 10000 nM. Besides, the IC50 on Lyn [1] was 100 to 1000 nM; at Src, less than 100 nM; at BTK (read-out: BTK IC50), less than 100 nM.

For the compound `CCN(CC)CCOc1ccc(Nc2cc3c(cn2)cc(-c2cccnc2)c(=O)n3CC)nc1` [Compound 103, 7-((5-(2-(diethylamino)ethoxy)pyridin-2-yl)amino)-1-ethyl-3-(pyridin-3-yl)-1,6-naphthyridin-2(1H)-one], the EC50 in the assay with Ramos (setting [3]) is more than 10000 nM; in the assay on DoHH2 (DOHH-2, 48 hrs) it was 1000 to 10000 nM. In addition, the figures for the IC50 against Lyn [1], on Src and at BTK (read-out: BTK IC50) were 100 to 1000 nM, less than 100 nM and more than 5000 nM, respectively.

On to `CCn1c(=O)c(-c2ccccc2)cc2cnc(Nc3cccnn3)cc21` [Compound 112, 1-ethyl-3-phenyl-7-(pyridazin-3-ylamino)-1,6-naphthyridin-2(1H)-one], for which the EC50 in the assay with Ramos (setting [4]) was more than 10000 nM; in the assay on DoHH2 (DOHH-2, 48 hrs), more than 10000 nM. The IC50 on Lyn [2] was more than 5000 nM; at Src, more than 5000 nM; against BTK, 1000 to 5000 nM.

`CCn1c(=O)c(-c2cc(SC)ccc2F)cc2cnc(Nc3ccc(N(C)C4CCN(C)CC4)cn3)cc21` [Compound 116, 1-ethyl-3-(2-fluoro-5-(methylthio)phenyl)-7-((5-(methyl(1-methylpiperidin-4-yl)amino)pyridin-2-yl)amino)-1,6-naphthyridin-2(1H)-one]: the EC50 was 1000 to 10000 nM in the assay on Ramos (Homo sapiens, Ramos, 48 h, read-out: Ramos EC50) and less than 1000 nM in the assay with DoHH2 (DOHH-2, 48 h). For the same compound, at Lyn [1], the IC50 is less than 100 nM.

On to `CCn1c(=O)c(-c2c(F)cccc2OC)cc2cnc(Nc3ccc(N(C)C4CCN(C)CC4)cn3)cc21` [Compound 118, 1-ethyl-3-(2-fluoro-6-methoxyphenyl)-7-((5-(methyl(1-methylpiperidin-4-yl)amino)pyridin-2-yl)amino)-1,6-naphthyridin-2(1H)-one], for which the half-maximal effective concentration (EC50) is 1000 to 10000 nM in the assay on Ramos (setting [4]) and less than 1000 nM in the assay on DoHH2 (DOHH-2, 48 hrs). The IC50 at Lyn [2], at Src and on BTK (read-out: BTK IC50) was less than 100 nM in each case.

For the compound `CCn1c(=O)c(-c2c(Cl)cccc2Cl)cc2cnc(Nc3ccc(N(C)C4CCN(C)CC4)cn3)cc21` [Compound 121, 3-(2,6-dichlorophenyl)-1-ethyl-7-((5-(methyl(1-methylpiperidin-4-yl)amino)pyridin-2-yl)amino)-1,6-naphthyridin-2(1H)-one], the EC50 with Ramos (setting [4]) was 1000 to 10000 nM; in the assay on DoHH2 (DOHH-2, 48 hrs), less than 1000 nM. Further, the IC50 on Lyn [2], on Src and at BTK (read-out: BTK IC50) was less than 100 nM in each case.

As to `CCn1c(=O)c(-c2c(O)cccc2Cl)cc2cnc(Nc3ccc(N(C)C4CCN(C)CC4)cn3)cc21` [Compound 122, 3-(2-chloro-6-hydroxyphenyl)-1-ethyl-7-((5-(methyl(1-methylpiperidin-4-yl)amino)pyridin-2-yl)amino)-1,6-naphthyridin-2(1H)-one], the EC50 in the assay on Ramos (setting [3]) was 1000 to 10000 nM; in the assay on DoHH2 (DOHH-2, 48 hrs), less than 1000 nM. The IC50 at Lyn [2], at Src and at BTK (read-out: BTK IC50) was less than 100 nM in each case.

As for `CCn1c(=O)c(-c2c(F)ccc(F)c2O)cc2cnc(Nc3ccc(N(C)C4CCN(C)CC4)cn3)cc21` [Compound 123, 3-(3,6-difluoro-2-hydroxyphenyl)-1-ethyl-7-((5-(methyl(1-methylpiperidin-4-yl)amino)pyridin-2-yl)amino)-1,6-naphthyridin-2(1H)-one], the EC50 in the assay with Ramos (setting [3]) is 1000 to 10000 nM; in the assay with DoHH2 (DOHH-2, 48 hrs), less than 1000 nM. The IC50 on Lyn [2], at Src and at BTK (read-out: BTK IC50) was less than 100 nM in each case.

As to `CCn1c(=O)c(-c2c(C)cc(F)cc2C)cc2cnc(Nc3ccc(N(C)C4CCN(C)CC4)cn3)cc21` [Compound 124, 1-ethyl-3-(4-fluoro-2,6-dimethylphenyl)-7-((5-(methyl(1-methylpiperidin-4-yl)amino)pyridin-2-yl)amino)-1,6-naphthyridin-2(1H)-one], the EC50 in the assay on Ramos (setting [3]) is more than 10000 nM; in the assay on DoHH2 (DOHH-2, 48 hrs) it was less than 1000 nM. Also, the IC50 on Lyn [2], at Src and at BTK (read-out: BTK IC50) was less than 100 nM each time.

Consider `CN(C)CCCn1c(=O)c(-c2c(F)cccc2F)cc2cnc(Nc3ccc(F)cn3)cc21` [Compound 130, 3-(2,6-difluorophenyl)-1-(3-(dimethylamino)propyl)-7-((5-fluoropyridin-2-yl)amino)-1,6-naphthyridin-2(1H)-one], for which the EC50 in the assay on Ramos (setting [3]) was 1000 to 10000 nM; in the assay with DoHH2 (DOHH-2, 48 hrs), less than 1000 nM. The IC50 at Lyn [2], at Src and at BTK (read-out: BTK IC50) was less than 100 nM throughout.

As to `O=c1c(-c2c(F)cccc2F)cc2cnc(Nc3ccc(F)cn3)cc2n1CCCN1CCOCC1` [Compound 131, 3-(2,6-difluorophenyl)-7-((5-fluoropyridin-2-yl)amino)-1-(3-morpholinopropyl)-1,6-naphthyridin-2(1H)-one], the EC50 was more than 10000 nM in the assay with Ramos (setting [3]) and less than 1000 nM in the assay on DoHH2 (DOHH-2, 48 hrs). For the same compound, the IC50 at Lyn [2] was less than 100 nM; on Src, less than 100 nM; on BTK, 100 to 1000 nM.

Regarding `CN1CCN(CCCn2c(=O)c(-c3c(F)cccc3F)cc3cnc(Nc4ccc(F)cn4)cc32)CC1` [Compound 132, 3-(2,6-difluorophenyl)-7-((5-fluoropyridin-2-yl)amino)-1-(3-(4-methylpiperazin-1-yl)propyl)-1,6-naphthyridin-2(1H)-one], the EC50 in the assay on Ramos (setting [3]) is more than 10000 nM; in the assay with DoHH2 (DOHH-2, 48 hrs) it was less than 1000 nM. The IC50 at Lyn [2], on Src and on BTK (read-out: BTK IC50) was less than 100 nM in each case.

Consider `CN1CCC(N(C)c2ccc(Nc3cc4c(cn3)cc(-c3c(F)cccc3F)c(=O)n4C3CCCC3)nc2)CC1` [Compound 139, 1-cyclopentyl-3-(2,6-difluorophenyl)-7-((5-(methyl(1-methylpiperidin-4-yl)amino)pyridin-2-yl)amino)-1,6-naphthyridin-2(1H)-one], for which the EC50 in the assay with Ramos (setting [4]) was 1000 to 10000 nM; in the assay on DoHH2 (DOHH-2, 48 hrs) it was less than 1000 nM. Further, the IC50 on Lyn [2], at Src and on BTK (read-out: BTK IC50) was less than 100 nM throughout.

For the compound `CN1CCC(N(C)c2ccc(Nc3cc4[nH]c(=O)c(-c5c(F)cccc5F)cc4cn3)nc2)CC1` [Compound 140, 3-(2,6-difluorophenyl)-7-((5-(methyl(1-methylpiperidin-4-yl)amino)pyridin-2-yl)amino)-1,6-naphthyridin-2(1H)-one], the EC50 with Ramos (setting [3]) was 1000 to 10000 nM; in the assay with DoHH2 (DOHH-2, 48 hrs) it was less than 1000 nM. Also, the IC50 at Lyn [2], on Src and on BTK (read-out: BTK IC50) was less than 100 nM throughout.

For orientation: EC50 means the concentration needed to bring the measured effect to its halfway point. As a reminder, the IC50 is the concentration that inhibits the measured activity by half.
